The structures appear in SMILES notation.

This data set is described as follows: xn = mol fraction of the nth substance listed. The note with it: 298.15 K, 100 kPa.

The viscosity is the resistance of a fluid to flow. A higher viscosity goes with a thick fluid. The compound `CCCC[n+]1ccn(C)c1.F[B-](F)(F)F` + CC1COC(=O)O1 displayed a viscosity (x1 = 1) of 107.2 mPa·s.

On to `CC1COC(=O)O1` (stereo unspecified) + CCCC[n+]1ccn(C)c1.F[B-](F)(F)F, for which the viscosity runs as follows: (x2 = 0) 2.7 mPa·s; (x2 = 0.05) 3.6 mPa·s; (x2 = 0.1) 4.4 mPa·s; (x2 = 0.3) 10 mPa·s; (x2 = 0.4) 15 mPa·s; (x2 = 0.5) 22 mPa·s. For the same compound, the viscosity runs as follows: (x2 = 0.6) 31.4 mPa·s; (x2 = 0.7) 44.5 mPa·s; (x2 = 0.8) 63.5 mPa·s; (x2 = 0.9) 81.3 mPa·s.

For the origin of these results see a compilation of properties of binary mixtures (doi:10.1016/j.molliq.2021.117163).
